In brackets after ≈: the same amount, converted by molar mass. Positions of bridges follow the written chain, without caps; N, C: chain ends. Non-standard residues stand in square brackets, D forms with d. Residues, ends and D or L forms follow the SMILES beside them. *: point of attachment. Ethyl(2-decanoyloxy) = CCCCCCCCCC(=O)OCC*; Ethyl(2-butanoyloxy) = CCCC(=O)OCC*; Ethyl(2-propionyloxy) = CCC(=O)OCC*; hCys = N[C@@H](CCS)C(=O)O; Dab = NCC[C@H](N)C(=O)O; X4 = CCCCCCCC(=O)OCC*; X1 = CCCCCC(=O)OCC*; Mpa = O=C(O)CCS
test system: E. coli ATCC 25922; type: cell-based, Escherichia coli; details: ATCC 25922
Source text: All 81 compounds prepared in Examples 2 and 3 underwent screening against a panel of Gram-negative bacterium to assess their ability to inhibit bacterial growth. […] The median value is presented.

| Structure (SMILES) | MIC E. coli ATCC 25922 |
| --- | --- |
| CCC(=O)OCCSC[C@H](N)C(=O)N[C@H](C(=O)N[C@@H](CCN)C(=O)N[C@H]1CCNC(=O)[C@H]([C@@H](C)O)NC(=O)[C@H](CCN)NC(=O)[C@H](CCN)NC(=O)[C@H](CC(C)C)NC(=O)[C@@H](Cc2ccccc2)NC(=O)[C@H](CCN)NC1=O)[C@@H](C)O [Compound 61] (H-C(Ethyl(2-propionyloxy))T[Dab][Dab][Dab][dF]L[Dab][Dab]T; lactam 4-C) | >128 µg/mL |
| CCC(=O)OCCSC[C@@H](N)C(=O)N[C@H](C(=O)N[C@@H](CCN)C(=O)N[C@H]1CCNC(=O)[C@H]([C@@H](C)O)NC(=O)[C@H](CCN)NC(=O)[C@H](CCN)NC(=O)[C@H](CC(C)C)NC(=O)[C@@H](Cc2ccccc2)NC(=O)[C@H](CCN)NC1=O)[C@@H](C)O [Compound 62] (H-[dC](Ethyl(2-propionyloxy))T[Dab][Dab][Dab][dF]L[Dab][Dab]T; lactam 4-C) | 1 µg/mL (≈ 0.857 µM) |
| CCC(=O)OCCSCCC(=O)N[C@H](C(=O)N[C@@H](CCN)C(=O)N[C@H]1CCNC(=O)[C@H]([C@@H](C)O)NC(=O)[C@H](CCN)NC(=O)[C@H](CCN)NC(=O)[C@H](CC(C)C)NC(=O)[C@@H](Cc2ccccc2)NC(=O)[C@H](CCN)NC1=O)[C@@H](C)O [Compound 63] ([Mpa](Ethyl(2-propionyloxy))T[Dab][Dab][Dab][dF]L[Dab][Dab]T; lactam 4-C) | 8 µg/mL (≈ 6.95 µM) |
| CCC(=O)OCCSCC[C@H](N)C(=O)N[C@H](C(=O)N[C@@H](CCN)C(=O)N[C@H]1CCNC(=O)[C@H]([C@@H](C)O)NC(=O)[C@H](CCN)NC(=O)[C@H](CCN)NC(=O)[C@H](CC(C)C)NC(=O)[C@@H](Cc2ccccc2)NC(=O)[C@H](CCN)NC1=O)[C@@H](C)O [Compound 64] (H-[hCys](Ethyl(2-propionyloxy))T[Dab][Dab][Dab][dF]L[Dab][Dab]T; lactam 4-C) | >128 µg/mL |
| CCC(=O)OCCSC[C@H](N)C(=O)N[C@H](C(=O)N[C@@H](CCN)C(=O)N[C@H]1CCNC(=O)[C@H]([C@@H](C)O)NC(=O)[C@H](CCN)NC(=O)[C@H](CCN)NC(=O)[C@H](CC(C)C)NC(=O)[C@@H](Cc2ccccc2)NC(=O)[C@H](CCN)NC1=O)[C@@H](C)O [Compound 65] (H-C(Ethyl(2-propionyloxy))T[Dab][Dab][Dab][dF]L[Dab][Dab]T; lactam 4-C) | 64 µg/mL (≈ 54.9 µM) |
| CCCC(=O)OCCSC[C@H](N)C(=O)N[C@H](C(=O)N[C@@H](CCN)C(=O)N[C@H]1CCNC(=O)[C@H]([C@@H](C)O)NC(=O)[C@H](CCN)NC(=O)[C@H](CCN)NC(=O)[C@H](CC(C)C)NC(=O)[C@@H](Cc2ccccc2)NC(=O)[C@H](CCN)NC1=O)[C@@H](C)O [Compound 66] (H-C(Ethyl(2-butanoyloxy))T[Dab][Dab][Dab][dF]L[Dab][Dab]T; lactam 4-C) | 16 µg/mL (≈ 13.6 µM) |
| CCCCCC(=O)OCCSC[C@H](N)C(=O)N[C@H](C(=O)N[C@@H](CCN)C(=O)N[C@H]1CCNC(=O)[C@H]([C@@H](C)O)NC(=O)[C@H](CCN)NC(=O)[C@H](CCN)NC(=O)[C@H](CC(C)C)NC(=O)[C@@H](Cc2ccccc2)NC(=O)[C@H](CCN)NC1=O)[C@@H](C)O [Compound 67] (H-C(X1)T[Dab][Dab][Dab][dF]L[Dab][Dab]T; lactam 4-C) | 4 µg/mL (≈ 3.31 µM) |
| CCCCCCCC(=O)OCCSC[C@H](N)C(=O)N[C@H](C(=O)N[C@@H](CCN)C(=O)N[C@H]1CCNC(=O)[C@H]([C@@H](C)O)NC(=O)[C@H](CCN)NC(=O)[C@H](CCN)NC(=O)[C@H](CC(C)C)NC(=O)[C@@H](Cc2ccccc2)NC(=O)[C@H](CCN)NC1=O)[C@@H](C)O [Compound 68] (H-C(X4)T[Dab][Dab][Dab][dF]L[Dab][Dab]T; lactam 4-C) | 1 µg/mL (≈ 0.809 µM) |
| CCCCCCCCCC(=O)OCCSC[C@H](N)C(=O)N[C@H](C(=O)N[C@@H](CCN)C(=O)N[C@H]1CCNC(=O)[C@H]([C@@H](C)O)NC(=O)[C@H](CCN)NC(=O)[C@H](CCN)NC(=O)[C@H](CC(C)C)NC(=O)[C@@H](Cc2ccccc2)NC(=O)[C@H](CCN)NC1=O)[C@@H](C)O [Compound 69] (H-C(Ethyl(2-decanoyloxy))T[Dab][Dab][Dab][dF]L[Dab][Dab]T; lactam 4-C) | 2 µg/mL (≈ 1.58 µM) |

From US20250282827A1, “LIPIDATED POLYMYXIN ANALOGUES” (priority 2021, published 2025)
